Measured values published in patent US5534508A, “Cephem compounds and antimicrobial agents” (Katayama Seiyakusyo Co., Ltd., priority 1993, dated 1996).
In brackets after ≈: the same amount, converted by molar mass.

Legend:
Assay type in all cases: cell-based
S. aureus 209p JC-1 = assay: MIC against standard strains (Table 1), S. aureus 209p JC-1; settings: Staphylococcus aureus, Muller-Hinton agar, overnight 37° C., read-out: MIC (minimum growth inhibitory concentration)
Experimental: (§1) The minimum growth inhibitory concentration (MIC, μg/ml) of the compounds for each of the 25 standard laboratory strains (standard strains) shown in Table 1 was determined in accordance with the standard method of the Japan Chemotherapical Society (Chemotherapy, 29, 76-79 (1981) under "Re-revision of the measuring methods of minimum growth inhibitory concentration (MIC)").
(§2) That is, by using each test strain cultured overnight at 37° C. in a Muller-Hinton broth, there was prepared a bacterial solution with a cell density of 1×10^6 CFU/ml in the same broth. The bacterial solution was inoculated into the Muller-Hinton agar media each containing respectively one test agent (i.e., compound) and, after overnight incubation at 37° C., the minimum concentration that inhibited growth of the bacteria was determined and expressed as MIC.
(§3) Staphylococcus aureus 167 and Staphylococcus aureus 195 used in the test were MRSA. CTM (cefotiam) and FMOX (flomoxef) were used as the control agents.

S. aureus Smith = assay: MIC against standard strains (Table 1), S. aureus Smith; settings: Staphylococcus aureus, Muller-Hinton agar, overnight 37° C., read-out: MIC (minimum growth inhibitory concentration)
Experimental: as §1, §2, §3

S. aureus 167 = assay: MIC against standard strains (Table 1), S. aureus 167 (MRSA); settings: Staphylococcus aureus, Muller-Hinton agar, overnight 37° C., read-out: MIC (minimum growth inhibitory concentration)
Experimental: as §1, §2, §3

S. aureus 195 = assay: MIC against standard strains (Table 1), S. aureus 195 (MRSA); settings: Staphylococcus aureus, Muller-Hinton agar, overnight 37° C., read-out: MIC (minimum growth inhibitory concentration)
Experimental: as §1, §2, §3

S. epidemidis IAM 1296 = assay: MIC against standard strains (Table 1), S. epidemidis IAM 1296; settings: Muller-Hinton agar, overnight 37° C., read-out: MIC (minimum growth inhibitory concentration)
Experimental: as §1, §2, §3

M. luteus ATCC 9341 = assay: MIC against standard strains (Table 1), M. luteus ATCC 9341; settings: Micrococcus luteus, ATCC9341, Muller-Hinton agar, overnight 37° C., read-out: MIC (minimum growth inhibitory concentration)
Experimental: as §1, §2, §3

B. subtilis ATCC 6633 = assay: MIC against standard strains (Table 1), B. subtilis ATCC 6633; settings: Bacillus subtilis, ATCC6633, Muller-Hinton agar, overnight 37° C., read-out: MIC (minimum growth inhibitory concentration)
Experimental: as §1, §2, §3

E. coli JC-2 = assay: MIC against standard strains (Table 1), E. coli JC-2; settings: Escherichia coli, JC2, Muller-Hinton agar, overnight 37° C., read-out: MIC (minimum growth inhibitory concentration)
Experimental: as §1, §2, §3

E. coli CSH2(RK1) = assay: MIC against standard strains (Table 1), E. coli CSH2(RK1); settings: Escherichia coli, read-out: MIC (minimum growth inhibitory concentration)
Experimental: as §1, §2, §3

E. coli CSH2(RE45) = assay: MIC against standard strains (Table 1), E. coli CSH2(RE45); settings: Escherichia coli, read-out: MIC (minimum growth inhibitory concentration)
Experimental: as §1, §2, §3

K. pneuminiae IFO 3317 = assay: MIC against standard strains (Table 1), K. pneuminiae IFO 3317; settings: Muller-Hinton agar, overnight 37° C., read-out: MIC (minimum growth inhibitory concentration)
Experimental: as §1, §2, §3

K. pneuminiae No. 42 = assay: MIC against standard strains (Table 1), K. pneuminiae No. 42; settings: Muller-Hinton agar, overnight 37° C., read-out: MIC (minimum growth inhibitory concentration)
Experimental: as §1, §2, §3

P. mirabilis IFO 3849 = assay: MIC against standard strains (Table 1), P. mirabilis IFO 3849; settings: Proteus mirabilis, IFO3849, Muller-Hinton agar, overnight 37° C., read-out: MIC (minimum growth inhibitory concentration)
Experimental: as §1, §2, §3

P. vulugaris OX-19 = assay: MIC against standard strains (Table 1), P. vulugaris OX-19; settings: Muller-Hinton agar, overnight 37° C., read-out: MIC (minimum growth inhibitory concentration)
Experimental: as §1, §2, §3

M. morganii IFO 3848 = assay: MIC against standard strains (Table 1), M. morganii IFO 3848; settings: Morganella morganii, IFO3848, Muller-Hinton agar, overnight 37° C., read-out: MIC (minimum growth inhibitory concentration)
Experimental: as §1, §2, §3

S. marcescens IAM 1184 = assay: MIC against standard strains (Table 1), S. marcescens IAM 1184; settings: Serratia marcescens, IAM1184, Muller-Hinton agar, overnight 37° C., read-out: MIC (minimum growth inhibitory concentration)
Experimental: as §1, §2, §3

S. marcescens No. 16-2 = assay: MIC against standard strains (Table 1), S. marcescens No. 16-2; settings: Serratia marcescens, NO.162, Muller-Hinton agar, overnight 37° C., read-out: MIC (minimum growth inhibitory concentration)
Experimental: as §1, §2, §3

E. cloacae ATCC 13407 = assay: MIC against standard strains (Table 1), E. cloacae ATCC 13407; settings: Enterobacter cloacae, ATCC13407, Muller-Hinton agar, overnight 37° C., read-out: MIC (minimum growth inhibitory concentration)
Experimental: as §1, §2, §3

E. cloacae Nek39 = assay: MIC against standard strains (Table 1), E. cloacae Nek39; settings: Enterobacter cloacae, Muller-Hinton agar, overnight 37° C., read-out: MIC (minimum growth inhibitory concentration)
Experimental: as §1, §2, §3

C. freundii ATCC 8090 = assay: MIC against standard strains (Table 1), C. freundii ATCC 8090; settings: Citrobacter freundii, ATCC8090, Muller-Hinton agar, overnight 37° C., read-out: MIC (minimum growth inhibitory concentration)
Experimental: as §1, §2, §3

P. aeruginosa NCTC 10490 = assay: MIC against standard strains (Table 1), P. aeruginosa NCTC 10490; settings: Pseudomonas aeruginosa, NCTC10490, Muller-Hinton agar, overnight 37° C., read-out: MIC (minimum growth inhibitory concentration)
Experimental: as §1, §2, §3

P. aeruginosa AKR17 = assay: MIC against standard strains (Table 1), P. aeruginosa AKR17; settings: Pseudomonas aeruginosa, Muller-Hinton agar, overnight 37° C., read-out: MIC (minimum growth inhibitory concentration)
Experimental: as §1, §2, §3

P. cepacia CN 9113 = assay: MIC against standard strains (Table 1), P. cepacia CN 9113; settings: Burkholderia cepacia, CN9113, Muller-Hinton agar, overnight 37° C., read-out: MIC (minimum growth inhibitory concentration)
Experimental: as §1, §2, §3

A. faecalis ATCC 3750 = assay: MIC against standard strains (Table 1), A. faecalis ATCC 3750; settings: Alcaligenes faecalis, ATCC3750, Muller-Hinton agar, overnight 37° C., read-out: MIC (minimum growth inhibitory concentration)
Experimental: as §1, §2, §3

A. calcoaceticos T59 = assay: MIC against standard strains (Table 1), A. calcoaceticos T59; settings: Muller-Hinton agar, overnight 37° C., read-out: MIC (minimum growth inhibitory concentration)
Experimental: as §1, §2, §3

clinically isolated MRSA = assay: Antibacterial potency against clinically isolated MRSA (47 strains); settings: Staphylococcus aureus; for MIC50: concentration inhibiting growth of 50% of 47 clinically isolated MRSA strains; for MIC90: concentration inhibiting growth of 90% of 47 clinically isolated MRSA strains
Experimental: A test on the antibacterial potency against clinically isolated MRSA was conducted in the following way.
That is, using 47 strains of clinically isolated MRSA, MIC was determined for each of the test strains in accordance with the standard method of the Japan Chemotherapical Society as in Test Example 1, and the minimum growth inhibitory concentration which inhibited growth of 50% of the strains tested was expressed as MIC50 (μg/ml), and the minimum growth inhibitory concentration which inhibited growth of 90% of the strains tested was expressed as MIC90 (μg/ml).
In this test, FMOX was used as the control agent.

SMILES | MIC (S. aureus 209p JC-1) [µg/mL] | MIC (S. aureus Smith) [µg/mL] | MIC (S. aureus 167) [µg/mL] | MIC (S. aureus 195) [µg/mL] | MIC (S. epidemidis IAM 1296) [µg/mL] | MIC (M. luteus ATCC 9341) [µg/mL] | MIC (B. subtilis ATCC 6633) [µg/mL] | MIC (E. coli JC-2) [µg/mL] | MIC (E. coli CSH2(RK1)) [µg/mL] | MIC (E. coli CSH2(RE45)) [µg/mL] | MIC (K. pneuminiae IFO 3317) [µg/mL] | MIC (K. pneuminiae No. 42) [µg/mL] | MIC (P. mirabilis IFO 3849) [µg/mL] | MIC (P. vulugaris OX-19) [µg/mL] | MIC (M. morganii IFO 3848) [µg/mL] | MIC (S. marcescens IAM 1184) [µg/mL] | MIC (S. marcescens No. 16-2) [µg/mL] | MIC (E. cloacae ATCC 13407) [µg/mL] | MIC (E. cloacae Nek39) [µg/mL] | MIC (C. freundii ATCC 8090) [µg/mL] | also measured
NC(=O)c1ccc[n+](C/C=C/C2=C(C(=O)[O-])N3C(=O)[C@@H](NC(=O)/C(=N\O)c4csc(N)n4)[C@H]3SC2)c1 [Compound 18, 7β-[2-(2-aminothiazol-4-yl)-2-syn-hydroxyiminoacetamido]-3-[(E)-3-(3-carbamoylpyridinio)-1-propenyl]-3-cephem-4-carboxylate] | 0.1 (≈ 0.189 µM) | 0.1 (≈ 0.189 µM) | 50 (≈ 94.4 µM) | 3.13 (≈ 5.91 µM) | 0.05 (≈ 0.0944 µM) | 0.05 (≈ 0.0944 µM) | 0.1 (≈ 0.189 µM) | 0.05 (≈ 0.0944 µM) | 0.1 (≈ 0.189 µM) | 0.05 (≈ 0.0944 µM) | 0.05 (≈ 0.0944 µM) | 0.1 (≈ 0.189 µM) | 0.1 (≈ 0.189 µM) | 0.1 (≈ 0.189 µM) | 0.05 (≈ 0.0944 µM) | 0.05 (≈ 0.0944 µM) | 12.5 (≈ 23.6 µM) | 0.1 (≈ 0.189 µM) | 6.25 (≈ 11.8 µM) | 0.05 (≈ 0.0944 µM) | MIC (P. aeruginosa NCTC 10490): 1.56 µg/mL (≈ 2.95 µM); MIC (P. aeruginosa AKR17): > 100 µg/mL; MIC (P. cepacia CN 9113): > 100 µg/mL; MIC (A. faecalis ATCC 3750): 0.78 µg/mL (≈ 1.47 µM); MIC (A. calcoaceticos T59): 3.13 µg/mL (≈ 5.91 µM); MIC50 (clinically isolated MRSA): 2.63 µg/mL (≈ 4.97 µM); MIC90 (clinically isolated MRSA): 22.2 µg/mL (≈ 41.9 µM)
CO/N=C(\C(=O)N[C@@H]1C(=O)N2C(C(=O)[O-])=C(/C=C/C[n+]3cccc(NC(N)=O)c3)CS[C@H]12)c1csc(N)n1 [Compound 6, 7β-[2-(2-aminothiazol-4-yl)-2-syn-methoxyiminoacetamido]-3-[(E)-3-(3-ureidopyridinio]-1-propenyl]-3-cephem-4-carboxylate] | 0.39 (≈ 0.698 µM) | 0.39 (≈ 0.698 µM) | 50 (≈ 89.5 µM) | 12.5 (≈ 22.4 µM) | 0.2 (≈ 0.358 µM) | 0.025 (≈ 0.0448 µM) | 0.2 (≈ 0.358 µM) | 0.025 (≈ 0.0448 µM) | 0.025 (≈ 0.0448 µM) | 0.1 (≈ 0.179 µM) | 0.025 (≈ 0.0448 µM) | 0.1 (≈ 0.179 µM) | 0.025 (≈ 0.0448 µM) | 0.025 (≈ 0.0448 µM) | 0.025 (≈ 0.0448 µM) | 0.025 (≈ 0.0448 µM) | 0.78 (≈ 1.4 µM) | 0.2 (≈ 0.358 µM) | 3.13 (≈ 5.6 µM) | 0.025 (≈ 0.0448 µM) | MIC (P. aeruginosa NCTC 10490): 0.39 µg/mL (≈ 0.698 µM); MIC (P. aeruginosa AKR17): > 100 µg/mL; MIC (P. cepacia CN 9113): 50 µg/mL (≈ 89.5 µM); MIC (A. faecalis ATCC 3750): 0.39 µg/mL (≈ 0.698 µM); MIC (A. calcoaceticos T59): 6.25 µg/mL (≈ 11.2 µM); MIC50 (clinically isolated MRSA): 13.8 µg/mL (≈ 24.7 µM); MIC90 (clinically isolated MRSA): 67 µg/mL (≈ 120 µM)
NC(=O)Nc1ccc[n+](C/C=C/C2=C(C(=O)[O-])N3C(=O)[C@@H](NC(=O)/C(=N\O)c4csc(N)n4)[C@H]3SC2)c1 [Compound 13, 7β-[2-(2-aminothiazol-4-yl)-2-syn-hydroxyiminoacetamido]-3-[(E)-3-(3-ureidopyridinio) -1-propenyl]-3-cephem-4-carboxylate] | 0.1 (≈ 0.184 µM) | 0.2 (≈ 0.367 µM) | 12.5 (≈ 23 µM) | 1.56 (≈ 2.86 µM) | 0.025 (≈ 0.0459 µM) | 0.05 (≈ 0.0918 µM) | 0.2 (≈ 0.367 µM) | 0.025 (≈ 0.0459 µM) | 0.05 (≈ 0.0918 µM) | 0.05 (≈ 0.0918 µM) | 0.025 (≈ 0.0459 µM) | 0.05 (≈ 0.0918 µM) | 0.05 (≈ 0.0918 µM) | 0.05 (≈ 0.0918 µM) | 0.025 (≈ 0.0459 µM) | 0.05 (≈ 0.0918 µM) | 6.25 (≈ 11.5 µM) | 0.1 (≈ 0.184 µM) | 6.25 (≈ 11.5 µM) | 0.025 (≈ 0.0459 µM) | MIC (P. aeruginosa NCTC 10490): 1.56 µg/mL (≈ 2.86 µM); MIC (P. aeruginosa AKR17): > 100 µg/mL; MIC (P. cepacia CN 9113): > 100 µg/mL; MIC (A. faecalis ATCC 3750): 0.78 µg/mL (≈ 1.43 µM); MIC (A. calcoaceticos T59): 3.13 µg/mL (≈ 5.75 µM); MIC50 (clinically isolated MRSA): 0.83 µg/mL (≈ 1.52 µM); MIC90 (clinically isolated MRSA): 5.08 µg/mL (≈ 9.33 µM)
